Laboratory results: patent publication US11571435B2, “S1PR4-targeting composition for preventing or treating non-alcoholic steatohepatitis” (UNIVERSITY OF ULSAN FOUNDATION FOR INDUSTRY COOPERATION, priority 2017, dated 2023)

Tests used:
[1] = test system: S1PR4-EGFP; experiment: S1PR4 internalization and recycling in cell lines overexpressing S1PR4-EGFP (fluorescence microscopy); assay type: cell-based; conditions: S1P 100 nM, FTY720 100 nM, SLB736 1 μM, cycloheximide; for S1PR4 internalization: 30 minutes after treatment; for S1PR4 recycling to the cell membrane: 2 hours (washed after 30 minutes)
Experimental: Cell lines overexpressing S1PR4-EGFP were used to identify whether or not SLB736 and FTY720 actually internalize S1PR4 into cells and thereby act as functional antagonists.
Specifically, the cell lines overexpressing S1PR4-EGFP were incubated in a cover glass allowing for microscopic observation and were then treated with a vehicle (dimethyl sulfoxide […]), S1P (100 nM; agonist, positive control group), FTY720 (100 nM) and SLB736 (1 μM). 30 minutes and 2 hours after treatment with each material, the cell lines were fixed with a fixing solution and observed with a fluorescence microscope. At this time, the cells were cultured after treatment with a protein synthesis inhibitor (cycloheximide) in order to inhibit the synthesis of new receptors, were first observed with a fluorescence microscope 30 minutes after each material treatment, and were then washed. Then, the cells were further cultured for 1 hour 30 minutes and were secondarily observed, and cell images were obtained.

[2] = test system: non-alcoholic steatohepatitis (NASH) caused by MCDD; experiment: prevention of NASH onset in mice administered MCDD for 6 weeks; assay type: in vivo, mouse
Source text: In order to identify the effect of the SLB736 compound on the prevention of onset of non-alcoholic steatohepatitis (NASH), an animal model administered with MCDD for 6 weeks was used. Generally known characteristic microscopic findings of NASH include steatosis, ballooning degeneration of hepatocytes, lobular inflammation, perisinusoidal fibrosis and the like. In 2005, the NASH clinical research network (CRN) designed a detailed grading system for lesions corresponding to nonalcoholic steatohepatitis and thus proposed the nonalcoholic fatty liver disease activity score (NAS), which is widely used in various research due to the excellent reproducibility thereof. Accordingly, the present inventors have scored the grade of steatosis, location of steatosis, lobular inflammation and the extent of fibrosis, from the results of liver tissue observation of animal models, based on the CRN classification system. Based on this, the effect of SLB736, which is the target compound in the present invention, on the prevention or progression of non-alcoholic steatohepatitis caused by MCDD was evaluated. […] In order to determine this quantitatively, evaluation was conducted according to the NAS system of the CRN. […] In addition, the expression levels of TGF-β, TNF-α and MCP-1 were measured in order to identify the effects of the SLB736 compound on the expression of inflammatory markers and fibrosis markers in liver tissue. Specifically, RNA was extracted from liver tissue of the animal model and mRNA was measured using Q-PCR.

[3] = leukocytes and lymphocytes in whole blood after administration (lymphopenia); assay type: in vivo, mouse; conditions: mice, automated analyzer
Experimental: Therefore, when the SLB736 of the present invention was administered, changes of leukocytes and lymphocytes in the blood were measured to determine the possibility of side effects. On the day of autopsy, blood was collected from the posterior vein using a syringe and whole blood was refrigerated in an EDTA-2K CBC bottle. The leukocytes and lymphocytes in the whole blood were measured using an automated analyzer.

[4] = target: T1, S1PR4 (Mus musculus, UniProt Q9Z0L1); experiment: S1PR4 protein expression in liver tissue of MCDD-fed mice (Western blotting); assay type: in vivo; conditions: C57BL/6N mice, 1 mg/kg with MCDD for 6 weeks, vs MCDD alone
T1 construct: endogenous in cells; host or cells: Raw cells (mouse macrophage line)
T1 sequence (Q9Z0L1 1-386): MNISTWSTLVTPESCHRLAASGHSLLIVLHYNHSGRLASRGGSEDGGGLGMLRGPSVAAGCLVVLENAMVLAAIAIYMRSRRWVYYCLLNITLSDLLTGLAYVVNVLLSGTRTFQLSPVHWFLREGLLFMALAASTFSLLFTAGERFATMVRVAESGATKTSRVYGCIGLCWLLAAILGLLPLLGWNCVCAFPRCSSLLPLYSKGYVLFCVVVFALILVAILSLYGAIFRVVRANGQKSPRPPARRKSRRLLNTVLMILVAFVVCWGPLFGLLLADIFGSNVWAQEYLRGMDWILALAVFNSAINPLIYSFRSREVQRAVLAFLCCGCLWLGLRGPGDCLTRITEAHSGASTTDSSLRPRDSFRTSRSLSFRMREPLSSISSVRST
Source text: In order to determine whether or not SLB736, the compound of the present invention, acts as a functional antagonist of S1PR4, changes in S1PR4 protein expression were observed after administration of candidate substances to nonalcoholic steatohepatitis (NASH) model mice and macrophages thereof.
It is well known that the administration of a methionine choline-deficient diet (MCDD) to mice results in non-alcoholic steatohepatitis. The mice (C57BL/6N, Orient Bio, Inc., Korea) used in the experiments were divided into three groups, and MCDD alone, 1 mg/kg of MCDD and FTY720, and 1 mg/kg of MCDD and SLB736 were administered to each group for 6 weeks. Then, changes in the expression of S1PR4 protein in liver tissue of mice were measured through Western blotting.

[5] = test system: non-alcoholic steatohepatitis (NASH) caused by MCDD; experiment: treatment of NASH in NASH-induced mice (MCDD for 4 weeks, then 4 weeks treatment); assay type: in vivo, mouse; conditions: 5 mg/kg/day for 4 weeks after 4 weeks MCDD, liver tissue
Experimental: A NASH-induced animal model obtained by administering MCDD to 8-week-old mice (C57BL6/N, Orient Bio Inc., Korea) for 4 weeks was used in order to identify the effect of the SLB736 compound on the treatment of non-alcoholic steatohepatitis (NASH). Specifically, the NASH-induced model mice were divided into two groups, the control group was further fed with MCDD for 4 weeks, the experimental group was fed with SLB736 at a dose of 5 mg/kg/day for 4 weeks in combination with MCDD, and liver tissue was collected from each mouse and observed with a microscope to determine the degree of steatosis, lobular inflammation and fibrosis.

[6] = target: T2, S1PR4 (Homo sapiens, UniProt O95977); experiment: agonistic activity of S1P receptors, GPCR activity measurement method of DiscoveRX Corp.; assay type: cell-based
T2 construct: purchased DiscoveRX Corp
T2 sequence (O95977 1-384): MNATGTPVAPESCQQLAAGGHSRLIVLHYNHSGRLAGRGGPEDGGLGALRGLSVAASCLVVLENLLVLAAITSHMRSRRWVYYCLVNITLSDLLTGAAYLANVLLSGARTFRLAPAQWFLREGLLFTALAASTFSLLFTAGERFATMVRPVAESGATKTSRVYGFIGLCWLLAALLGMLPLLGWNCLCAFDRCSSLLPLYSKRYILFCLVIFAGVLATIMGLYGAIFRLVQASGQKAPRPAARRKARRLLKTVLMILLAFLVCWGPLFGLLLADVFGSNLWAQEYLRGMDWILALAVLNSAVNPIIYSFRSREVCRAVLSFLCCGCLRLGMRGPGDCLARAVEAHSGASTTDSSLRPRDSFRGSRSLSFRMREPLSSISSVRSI

[7] = target: T1, S1PR4; experiment: S1PR4 expression in LPS-treated Raw cells; assay type: cell-based; conditions: substance then LPS, vs LPS only
Experimental: In addition, Raw cells, which are mouse macrophage lines, were treated with a FTY720 or SLB736 substance, and were then treated with LPS, and S1PR4 expression was then measured.

[8] = test system: NLRP3 inflammasome; experiment: IL-1β production of LPS-treated macrophages (NLRP3 inflammasome activity); assay type: cell-based, mouse; conditions: Raw cells; for inhibitory effect of IL-1β production: then LPS
Source text: It is well known that the treatment of macrophages with lipopolysaccharide (LPS) results in activation of inflammation-regulating complex (inflammasome), thereby increasing IL-1β production (Mariathasan et al., Nat. Rev. Immunol. 2007; 17186029). In order to determine the inhibitory effect of the activity of inflammation-regulating complex (NLRP3 inflammasome), which is a representative inflammation-regulating protein, the IL-1(3 production of candidate substances upon the treatment of macrophages with LPS was measured and evaluated.
The macrophages were treated with myriocin in different concentrations as a control group and were then treated with the same concentration of LPS for 24 hours. […] Based on this, experiments were conducted to determine the effect of sphingolipid candidates on the inhibition of IL-1β.

[9] = reported for FTY720; cited from earlier work
[10] = 10 times a normal dose; cited from earlier work
[11] = 1 mg/kg/day for six weeks with MCDD, liver tissue
[12] = 1 mg/kg/day for six weeks with MCDD, vs control group
[13] = liver tissue, MCDD 6 weeks model

With `CCCCCCCCCCCCC/C=C/[C@@H](O)[C@@H](N)COP(=O)(O)O` [S1P, sphingosine 1-phosphate, reference compound] the S1PR4 internalization [1] was “internalized” and the “S1PR4 recycling to the cell membrane” value [1] was “recycled to the cell membrane”.

With `CCCCCCCCCCn1cc(CCC(N)(CO)CO)nn1` [SLB736, 2-amino-2-(2-(1-decyl-1H-1,2,3-triazol-4-yl)ethyl)propane-1,3-diol] the S1PR4 internalization [1] was “internalized”, the “S1PR4 recycling to the cell membrane” value [1] was “not recycled” and the “degree of fibrosis (microscope)” value [2, 11] was “significantly reduced”. The “degree of steatosis (microscope)” value [2, 11] was “significantly reduced”, the “lobular inflammation (microscope)” value [2, 11] was “significantly reduced” and the “degree of fibrosis, NAS system of the CRN” value [2, 12] was “significantly alleviated”. For the same compound, the “degree of steatosis, NAS system of the CRN” value [2, 12] was “significantly alleviated”, the “lobular inflammation, NAS system of the CRN” value [2, 12] was “significantly alleviated” and the “expression of MCP-1 (mRNA, Q-PCR)” value [2, 13] was “reduced to a significant level”. For the same compound, the “expression of TGF-β (mRNA, Q-PCR)” value [2, 13] was “reduced to a significant level”, the “expression of TNF-α (mRNA, Q-PCR)” value [2, 13] was “reduced to a significant level” and the leukocytes in blood [3] was “no reduction”. For the same compound, the lymphocytes in blood [3] was “no reduction”, the “amount of S1PR4 protein in liver tissue” value [4] was “decreased” and the “degree of fibrosis (microscope)” value [5] was “considerable reduction”. For the same compound, the “degree of steatosis (microscope)” value [5] was “considerable reduction”, the “lobular inflammation (microscope)” value [5] was “considerable reduction” and the “agonistic activity of S1P receptors” value [6] was “agonistic effect specific for S1PR4”. For the same compound, the “expression level of S1PR4” value [7] was “significantly reduce”, the “inhibitory effect of IL-1β production” value ([8]; 0.1 μM) was “excellent” and the “inhibitory effect of IL-1β production” value ([8]; 1.0 μM) was “excellent”.

For `CCCCCCCCc1ccc(CCC(N)(CO)CO)cc1` [FTY720, Fingolimod], the “side effect in the blood” value [9] is given as “lymphopenia in the blood”.

In the case of `CCCCCCC(=O)CCCCCC/C=C/C[C@@H](O)[C@H](O)[C@@](N)(CO)C(=O)O` [myriocin, reference compound], the toxicity in animals [10] is given as “death from severe digestive disorders” and the IL-1β production ([8]; 10 μM, then LPS 100 ng/ml for 24 hours) is given as “effectively reduced IL-1β production”.
